Laboratory results: patent US8309718B2, “4-pyrazolyl-N-arylpyrimidin-2-amines and 4-pyrazolyl-N-heteroarylpyrimidin-2-amines as janus kinase inhibitors” (Incyte Corporation, priority 2007, dated 2012)

These molecules were tested against T1, human JAK2 (Homo sapiens, UniProt O60674) (assay: In vitro JAK kinase assay (HTRF, phosphorylation of biotinylated peptide)). Settings: catalytic domain a.a. 828-1132, 30 μM ATP, 500 nM peptide, room temperature 1 hr; read-out: JAK-2 IC50.
T1 construct: JAK2 (a.a. 828-1132); His tag (N); made in house; host or cells: insect cells (baculovirus)
Type: biochemical
Procedure: Compounds herein were tested for inhibitory activity of JAK targets according to the following in vitro assay described in Park et al, Analytical Biochemistry 1999, 269, 94-104. The catalytic domains of human JAK1 (a.a. 837-1142), JAK2 (a.a. 828-1132) and JAK3 (a.a. 781-1124) with an N-terminal His tag were expressed using baculovirus in insect cells and purified. The catalytic activity of JAK1, JAK2 or JAK3 was assayed by measuring the phosphorylation of a biotinylated peptide. The phosphorylated peptide was detected by homogenous time resolved fluorescence (HTRF). IC50s of compounds were measured for each kinase in the reactions that contain the enzyme, ATP and 500 nM peptide in 50 mM Tris (pH 7.8) buffer with 100 mM NaCl, 5 mM DTT, and 0.1 mg/mL (0.01%) BSA. The ATP concentration in the reactions was 90 μM for JAK1, 30 μM for Jak2 and 3 μM for JAK3. Reactions were carried out at room temperature for 1 hr and then stopped with 20 μL 45 mM EDTA, 300 nM SA-APC, 6 nM Eu-Py20 in assay buffer (Perkin Elmer, Boston, Mass.). Binding to the Europium labeled antibody took place for 40 minutes and HTRF signal was measured on a Fusion plate reader (Perkin Elmer, Boston, Mass.). Certain of the above compounds were tested according to this assay.

T1 sequence (O60674 828-1132): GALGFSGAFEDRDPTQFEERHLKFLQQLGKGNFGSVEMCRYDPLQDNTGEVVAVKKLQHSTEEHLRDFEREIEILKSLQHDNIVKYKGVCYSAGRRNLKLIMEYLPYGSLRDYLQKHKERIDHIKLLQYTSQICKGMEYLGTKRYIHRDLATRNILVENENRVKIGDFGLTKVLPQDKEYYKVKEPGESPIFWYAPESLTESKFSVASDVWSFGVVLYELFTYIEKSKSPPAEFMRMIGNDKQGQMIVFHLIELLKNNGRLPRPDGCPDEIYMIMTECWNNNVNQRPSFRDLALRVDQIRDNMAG

Row | SMILES | IC50 [µM]
1 | N#CCC(CC1CCN(C(=O)c2ccc(F)cc2F)CC1)n1cc(-c2ccnc(Nc3ccc(-n4ccnc4)cc3)n2)cn1 (racemic) [Example 1, 3-(4-(2-(4-(1H-imidazol-1-yl)phenylamino)pyrimidin-4-yl)-1H-pyrazol-1-yl)-4-(1-(2,4-difluorobenzoyl)piperidin-4-yl)butanenitrile] | < 0.1
2 | N#CCC(CC1CCN(C(=O)c2ccc(F)cc2F)CC1)n1cc(-c2ccnc(Nc3ccc(N4CCNCC4)cc3)n2)cn1 (racemic) [Example 2, 4-(1-(2,4-difluorobenzoyl)piperidin-4-yl)-3-(4-(2-(4-(piperazin-1-yl)phenylamino)pyrimidin-4-yl)-1H-pyrazol-1-yl)butanenitrile] | < 0.1
3 | COc1ccc(Nc2nccc(-c3cnn(C(CC#N)CC4CCN(C(=O)c5ccc(F)cc5F)CC4)c3)n2)cc1 (racemic) [Example 3, 4-(1-(2,4-difluorobenzoyl)piperidin-4-yl)-3-(4-(2-(4-methoxyphenylamino)pyrimidin-4-yl)-1H-pyrazol-1-yl)butanenitrile] | < 0.1
4 | N#CCC(CC1CCN(C(=O)c2ccc(F)cc2F)CC1)n1cc(-c2ccnc(Nc3ccccc3)n2)cn1 (racemic) [Example 4, 4-(1-(2,4-difluorobenzoyl)piperidin-4-yl)-3-(4-(2-(phenylamino)pyrimidin-4-yl)-1H-pyrazol-1-yl)butanenitrile] | < 0.1
5 | N#CCC(CC1CCN(C(=O)c2ccc(F)cc2F)CC1)n1cc(-c2ccnc(Nc3ccc(N4CCOCC4)cc3)n2)cn1 (racemic) [Example 5, 4-(1-(2,4-difluorobenzoyl)piperidin-4-yl)-3-(4-(2-(4-morpholinophenylamino)pyrimidin-4-yl)-1H-pyrazol-1-yl)butanenitrile] | < 0.1
6 | N#CCC(CC1CCN(C(=O)c2ccc(F)cc2F)CC1)n1cc(-c2ccnc(Nc3ccc(-n4cccn4)cc3)n2)cn1 (racemic) [Example 6, 3-(4-(2-(4-(1H-pyrazol-1-yl)phenylamino)pyrimidin-4-yl)-1H-pyrazol-1-yl)-4-(1-(2,4-difluorobenzoyl)piperidin-4-yl)butanenitrile] | < 0.1
7 | N#CCC(CC1CCN(C(=O)c2ccc(F)cc2F)CC1)n1cc(-c2ccnc(Nc3cccc(-c4cnco4)c3)n2)cn1 (racemic) [Example 7, 4-(1-(2,4-difluorobenzoyl)piperidin-4-yl)-3-(4-(2-(3-(oxazol-5-yl)phenylamino)pyrimidin-4-yl)-1H-pyrazol-1-yl)butanenitrile] | < 0.1
8 | Cn1ccc(Nc2nccc(-c3cnn(C(CC#N)CC4CCN(C(=O)c5ccc(F)cc5F)CC4)c3)n2)n1 (racemic) [Example 8, 4-(1-(2,4-difluorobenzoyl)piperidin-4-yl)-3-(4-(2-(1-methyl-1H-pyrazol-3-ylamino)pyrimidin-4-yl)-1H-pyrazol-1-yl)butanenitrile] | < 0.1

Results, then the molecule that gave them:

Row | IC50 [µM] | SMILES
9 | < 0.1 | CC(=O)N[C@@H]1CCN(C(=O)c2ccc(Nc3nccc(-c4cnn(C(CC#N)C5CC5)c4)n3)cc2)C1 (mixture of isomers) [Example 268, N-((3R)-1-(4-(4-(1-(2-cyano-1-cyclopropylethyl)-1H-pyrazol-4-yl)pyrimidin-2-ylamino)benzoyl)pyrrolidin-3-yl)acetamide]
10 | < 0.1 | CN(C)C1CCN(C(=O)c2ccc(Nc3nccc(-c4cnn(C(CC#N)C5CC5)c4)n3)cc2)C1 (mixture of isomers) [Example 270, 3-cyclopropyl-3-(4-(2-(4-(3-(dimethylamino)pyrrolidine-1-carbonyl)phenylamino)pyrimidin-4-yl)-1H-pyrazol-1-yl)propanenitrile]
11 | < 0.1 | N#CCC(C1CC1)n1cc(-c2ccnc(Nc3ccc(C(=O)N4CC[C@H](F)C4)cc3)n2)cn1 (mixture of isomers) [Example 271, 3-cyclopropyl-3-(4-(2-(4-((S)-3-fluoropyrrolidine-1-carbonyl)phenylamino)pyrimidin-4-yl)-1H-pyrazol-1-yl)propanenitrile]
12 | < 0.1 | N#CCC(C1CCOCC1)n1cc(-c2ccnc(Nc3ccc(C(=O)N4CC[C@@H](O)C4)cc3)n2)cn1 (mixture of isomers) [Example 315, 3-(4-{2-[(4-{[(3R)-3-hydroxypyrrolidin-1-yl]carbonyl}phenyl)amino]pyrimidin-4-yl}-1H-pyrazol-1-yl)-3-(tetrahydro-2H-pyran-4-yl)propanenitrile]
13 | < 0.1 | CO[C@H]1CCN(C(=O)c2ccc(Nc3nccc(-c4cnn(C(CC#N)C5CCOCC5)c4)n3)cc2)C1 (mixture of isomers) [Example 316, 3-(4-{2-[(4-{[(3S)-3-methoxypyrrolidin-1-yl]carbonyl}phenyl)amino]pyrimidin-4-yl}-1H-pyrazol-1-yl)-3-(tetrahydro-2H-pyran-4-yl)propanenitrile]
14 | < 0.1 | N#CCC(C1CCOCC1)n1cc(-c2ccnc(Nc3ccc(C(=O)N4CC[C@H](C#N)C4)cc3)n2)cn1 (mixture of isomers) [Example 317, (3S)-1-{4-[(4-{1-[2-cyano-1-(tetrahydro-2H-pyran-4-yl)ethyl]-1H-pyrazol-4-yl}pyrimidin-2-yl)amino]benzoyl}pyrrolidine-3-carbonitrile]
15 | < 0.1 | COc1cnc(Nc2cccc(C(=O)N3CC[C@@H](O)C3)c2)nc1-c1cnn(C(CC#N)C2CC2)c1 (mixture of isomers) [Example 325, 3-cyclopropyl-3-(4-{2-[(3-{[(3R)-3-hydroxypyrrolidin-1-yl]carbonyl}phenyl)amino]-5-methoxypyrimidin-4-yl}-1H-pyrazol-1-yl)propanenitrile]
16 | < 0.1 | COc1cnc(Nc2cccc(C(=O)N3CC[C@H](OC)C3)c2)nc1-c1cnn(C(CC#N)C2CC2)c1 (mixture of isomers) [Example 326, 3-cyclopropyl-3-(4-{5-methoxy-2-[(3-{[(3S)-3-methoxypyrrolidin-1-yl]carbonyl}phenyl)amino]pyrimidin-4-yl}-1H-pyrazol-1-yl)propanenitrile]
17 | < 0.1 | COc1cnc(Nc2cccc(C(=O)N3CC[C@H](C#N)C3)c2)nc1-c1cnn(C(CC#N)C2CC2)c1 (mixture of isomers) [Example 327, (3S)-1-[3-({4-[1-(2-cyano-1-cyclopropylethyl)-1H-pyrazol-4-yl]-5-methoxypyrimidin-2-yl}amino)benzoyl]pyrrolidine-3-carbonitrile]
18 | < 0.1 | N#CCC(CC1CCN(C(=O)c2ccc(F)cc2F)CC1)n1cc(-c2ccnc(Nc3ccc(Oc4ccccc4)cc3)n2)cn1 (racemic) [Example 11, 4-(1-(2,4-difluorobenzoyl)piperidin-4-yl)-3-(4-(2-(4-phenoxyphenylamino)pyrimidin-4-yl)-1H-pyrazol-1-yl)butanenitrile]
19 | < 0.1 | N#CCC1(n2cc(-c3ccnc(Nc4ccc(-n5cccn5)cc4)n3)cn2)CCN(C(=O)c2ccno2)CC1 (racemic) [Example 12, 2-(4-(4-(2-(4-(1H-pyrazol-1-yl)phenylamino)pyrimidin-4-yl)-1H-pyrazol-1-yl)-1-(isoxazole-5-carbonyl)piperidin-4-yl)acetonitrile]
20 | < 0.1 | N#CCC1(n2cc(-c3ccnc(Nc4cccc(-c5cnco5)c4)n3)cn2)CCN(C(=O)c2ccno2)CC1 (racemic) [Example 13, 2-(1-(isoxazole-5-carbonyl)-4-(4-(2-(3-(oxazol-5-yl)phenylamino)pyrimidin-4-yl)-1H-pyrazol-1-yl)piperidin-4-yl)acetonitrile]
